Test results as given in publication PMC5218480 (PLoS ONE, 2017).

Test system: MV-4-11 cells
Assay: Gene expression microarray analysis (Affymetrix PrimeView) and GSEA
Assay type: cell-based, human
Parameters: RFU PODN (11730768_x_at) / Fold change /veh PODN (11730768_x_at) / RFU LINC00158 (11744669_a_at) / Fold change /veh LINC00158 (11744669_a_at) / RFU DUSP10 (11751237_a_at) / Fold change /veh DUSP10 (11751237_a_at) / RFU ID3 (11757404_x_at) / Fold change /veh ID3 (11757404_x_at) / RFU PLEKHG5 (11737974_s_at) / Fold change /veh PLEKHG5 (11737974_s_at) / RFU LRRC4B (11730491_at) / Fold change /veh LRRC4B (11730491_at) / RFU GIMAP4 (11747438_a_at) / Fold change /veh GIMAP4 (11747438_a_at) / RFU KRT8 (11758183_x_at) / Fold change /veh KRT8 (11758183_x_at) / RFU CNN1 (11734310_a_at) / Fold change /veh CNN1 (11734310_a_at) / RFU VPS37D (11726825_at) / Fold change /veh VPS37D (11726825_at) / RFU C10orf10 (11716522_x_at) / Fold change /veh C10orf10 (11716522_x_at) / RFU KIR2DL2 /// KIR2DL4 /// KIR2DL5A /// KIR2DL5B /// KIR2DS1 /// KIR2DS2 /// KIR2DS3 /// KIR2DS4 /// KIR3DL3 /// KIR3DL3 /// KIR3DS1 (11738374_at) / Fold change /veh KIR2DL2 /// KIR2DL4 /// KIR2DL5A /// KIR2DL5B /// KIR2DS1 /// KIR2DS2 /// KIR2DS3 /// KIR2DS4 /// KIR3DL3 /// KIR3DL3 /// KIR3DS1 (11738374_at) / RFU C1QL1 (11718748_at) / Fold change /veh C1QL1 (11718748_at) / RFU TMPRSS4 (11747572_a_at) / Fold change /veh TMPRSS4 (11747572_a_at) / RFU HAMP (11756126_x_at) / Fold change /veh HAMP (11756126_x_at) / RFU RNFT2 (11725882_a_at) / Fold change /veh RNFT2 (11725882_a_at) / RFU NR4A2 (11747474_a_at) / Fold change /veh NR4A2 (11747474_a_at) / RFU ABCC12 (11746883_a_at) / Fold change /veh ABCC12 (11746883_a_at) / RFU TMEM136 (11760407_x_at) / Fold change /veh TMEM136 (11760407_x_at) / RFU CLDN22 /// WWC2 (11732394_at) / Fold change /veh CLDN22 /// WWC2 (11732394_at) / RFU HLA-DPB1 (11760878_x_at) / Fold change /veh HLA-DPB1 (11760878_x_at) / RFU SPINT1 (11716480_a_at) / Fold change /veh SPINT1 (11716480_a_at) / RFU GAP43 (11754022_s_at) / Fold change /veh GAP43 (11754022_s_at) / RFU A4GNT (11735810_at) / Fold change /veh A4GNT (11735810_at) / RFU PRB3 (11715151_x_at) / Fold change /veh PRB3 (11715151_x_at) / RFU TUBB4B (11761932_at) / Fold change /veh TUBB4B (11761932_at) / RFU CAPN14 (11732068_a_at) / Fold change /veh CAPN14 (11732068_a_at) / RFU TMCC2 (11721928_a_at) / Fold change /veh TMCC2 (11721928_a_at) / RFU IRGQ (11745062_a_at) / Fold change /veh IRGQ (11745062_a_at) / RFU FAM174B (11720279_a_at) / Fold change /veh FAM174B (11720279_a_at) / RFU TMPRSS4 (11748680_a_at) / Fold change /veh TMPRSS4 (11748680_a_at) / RFU FAM212B (11763350_a_at) / Fold change /veh FAM212B (11763350_a_at) / RFU PLEKHG5 (11743358_a_at) / Fold change /veh PLEKHG5 (11743358_a_at) / RFU ZSCAN30 (11745921_a_at) / Fold change /veh ZSCAN30 (11745921_a_at) / RFU CMKLR1 (11741424_a_at) / Fold change /veh CMKLR1 (11741424_a_at) / RFU LOC101060620 /// MAPK8IP1 (11723275_at) / Fold change /veh LOC101060620 /// MAPK8IP1 (11723275_at) / RFU SPTSSB (11747773_x_at) / Fold change /veh SPTSSB (11747773_x_at) / RFU PRSS12 (11739890_at) / Fold change /veh PRSS12 (11739890_at) / RFU BIN1 (11741810_x_at) / Fold change /veh BIN1 (11741810_x_at) / RFU WNT11 (11732464_a_at) / Fold change /veh WNT11 (11732464_a_at) / RFU C10orf10 (11716521_a_at) / Fold change /veh C10orf10 (11716521_a_at) / RFU C5orf56 (11738089_at) / Fold change /veh C5orf56 (11738089_at) / RFU CYB561 (11721691_x_at) / Fold change /veh CYB561 (11721691_x_at) / RFU ANKRD19P (11752326_a_at) / Fold change /veh ANKRD19P (11752326_a_at) / RFU OR2T12 /// OR2T33 /// OR2T8 (11738714_s_at) / Fold change /veh OR2T12 /// OR2T33 /// OR2T8 (11738714_s_at) / RFU VCAN (11748164_a_at) / Fold change /veh VCAN (11748164_a_at) / RFU JSRP1 (11732532_at) / Fold change /veh JSRP1 (11732532_at) / RFU KRTAP10-11 (11738290_x_at) / Fold change /veh KRTAP10-11 (11738290_x_at) / RFU MYO3A (11730013_a_at) / Fold change /veh MYO3A (11730013_a_at) / RFU EBF3 (11725865_a_at) / Fold change /veh EBF3 (11725865_a_at) / RFU CAMK2N1 (11719241_x_at) / Fold change /veh CAMK2N1 (11719241_x_at) / RFU C5orf56 (11738088_a_at) / Fold change /veh C5orf56 (11738088_a_at) / RFU OLFML3 (11715873_a_at) / Fold change /veh OLFML3 (11715873_a_at) / RFU LOC100653217 /// NTM (11731650_a_at) / Fold change /veh LOC100653217 /// NTM (11731650_a_at) / RFU MAPK11 (11762145_a_at) / Fold change /veh MAPK11 (11762145_a_at) / RFU FIZ1 (11724087_x_at) / Fold change /veh FIZ1 (11724087_x_at) / RFU OASL (11726364_x_at) / Fold change /veh OASL (11726364_x_at) / RFU SOX15 (11748057_x_at) / Fold change /veh SOX15 (11748057_x_at) / RFU CD79A (11719716_a_at) / Fold change /veh CD79A (11719716_a_at) / RFU HIST1H1D (11736915_at) / Fold change /veh HIST1H1D (11736915_at) / RFU CASKIN2 (11723855_a_at) / Fold change /veh CASKIN2 (11723855_a_at) / RFU LOC730098 (11760151_x_at) / Fold change /veh LOC730098 (11760151_x_at) / RFU OR4N2 (11742367_at) / Fold change /veh OR4N2 (11742367_at) / RFU PRRT2 (11749266_a_at) / Fold change /veh PRRT2 (11749266_a_at) / RFU SNX32 (11753110_a_at) / Fold change /veh SNX32 (11753110_a_at) / RFU CDHR5 (11726645_a_at) / Fold change /veh CDHR5 (11726645_a_at) / RFU RCAN1 (11760418_a_at) / Fold change /veh RCAN1 (11760418_a_at) / RFU FAM167A (11723789_a_at) / Fold change /veh FAM167A (11723789_a_at) / RFU FAM26E (11764081_at) / Fold change /veh FAM26E (11764081_at) / RFU ISYNA1 (11749810_s_at) / Fold change /veh ISYNA1 (11749810_s_at) / RFU ACY1 (11761880_at) / Fold change /veh ACY1 (11761880_at) / RFU 11764098_at / Fold change /veh 11764098_at / RFU SAMD14 (11745864_x_at) / Fold change /veh SAMD14 (11745864_x_at) / RFU NPB (11741838_a_at) / Fold change /veh NPB (11741838_a_at) / RFU TMPRSS6 (11731388_a_at) / Fold change /veh TMPRSS6 (11731388_a_at) / RFU KRTAP10-2 (11738614_at) / Fold change /veh KRTAP10-2 (11738614_at) / RFU ARHGAP8 /// PRR5-ARHGAP8 (11727945_x_at) / Fold change /veh ARHGAP8 /// PRR5-ARHGAP8 (11727945_x_at) / RFU KRTAP5-7 /// NADSYN1 (11734609_at) / Fold change /veh KRTAP5-7 /// NADSYN1 (11734609_at) / RFU RASL12 (11751679_a_at) / Fold change /veh RASL12 (11751679_a_at) / RFU CDKN2B (11736163_a_at) / Fold change /veh CDKN2B (11736163_a_at) / RFU PRF1 (11729649_at) / Fold change /veh PRF1 (11729649_at) / RFU, ZNF638 /// ZNF638-IT1 / Fold change vs veh, ZNF638 /// ZNF638-IT1 / RFU, PANK3 / Fold change vs veh, PANK3 / RFU, SH3YL1 / Fold change vs veh, SH3YL1 / RFU, ZEB2 / Fold change vs veh, ZEB2 / RFU, NRIP1 / Fold change vs veh, NRIP1 / RFU, PTTG1IP / Fold change vs veh, PTTG1IP / RFU, CAPN2 / Fold change vs veh, CAPN2 / RFU, MED14 / Fold change vs veh, MED14 / RFU, SNORA58 / Fold change vs veh, SNORA58 / RFU, C1orf63 / Fold change vs veh, C1orf63 / RFU, LRRFIP1 / Fold change vs veh, LRRFIP1 / RFU, NDUFAF7 / Fold change vs veh, NDUFAF7 / RFU, SLC12A2 / Fold change vs veh, SLC12A2 / RFU, IBTK / Fold change vs veh, IBTK / RFU, ESF1 / Fold change vs veh, ESF1 / Fold change vs veh, TMEM50B / RFU, TAOK1 / Fold change vs veh, TAOK1 / RFU, ACBD3 / Fold change vs veh, ACBD3 / RFU, TMA16 / Fold change vs veh, TMA16 / RFU, RWDD3 / Fold change vs veh, RWDD3 / RFU, BCAT1 / Fold change vs veh, BCAT1 / RFU, EDEM3 / Fold change vs veh, EDEM3 / RFU, TMEM33 / Fold change vs veh, TMEM33 / RFU, WDR75 / Fold change vs veh, WDR75 / RFU, AHCTF1 / Fold change vs veh, AHCTF1 / RFU, TFRC / Fold change vs veh, TFRC / RFU, ZDHHC17 / Fold change vs veh, ZDHHC17 / RFU, NOM1 / Fold change vs veh, NOM1 / RFU, ARL8B / Fold change vs veh, ARL8B / RFU, ZBTB11 / Fold change vs veh, ZBTB11 / RFU, TAMM41 / Fold change vs veh, TAMM41 / RFU, KIAA1704 /// LOC100996395 / Fold change vs veh, KIAA1704 /// LOC100996395 / RFU, ING1 / Fold change vs veh, ING1 / RFU, TRMT61B / Fold change vs veh, TRMT61B / RFU, FUBP3 / Fold change vs veh, FUBP3 / RFU, TP53 / Fold change vs veh, TP53 / RFU, TNKS2 / Fold change vs veh, TNKS2 / RFU, ZFP14 / Fold change vs veh, ZFP14 / RFU, ACTR2 / Fold change vs veh, ACTR2 / RFU, PPP3R1 / Fold change vs veh, PPP3R1 / RFU, PIK3R1 / Fold change vs veh, PIK3R1 / RFU, HNRNPA1 / Fold change vs veh, HNRNPA1 / RFU, RNF170 / Fold change vs veh, RNF170 / RFU, ZNF28 / Fold change vs veh, ZNF28 / RFU, RNGTT / Fold change vs veh, RNGTT / RFU, OGT / Fold change vs veh, OGT / RFU, BRD1 / Fold change vs veh, BRD1 / RFU, MARS / Fold change vs veh, MARS / RFU, ZNF655 / Fold change vs veh, ZNF655 / RFU, FAHD1 / Fold change vs veh, FAHD1 / RFU, BDP1 / Fold change vs veh, BDP1 / RFU, LRRCC1 / Fold change vs veh, LRRCC1 / RFU, ARID1A / Fold change vs veh, ARID1A / RFU, ZNF146 / Fold change vs veh, ZNF146 / RFU, ZNF330 / Fold change vs veh, ZNF330 / RFU, GPN3 / Fold change vs veh, GPN3 / RFU, C9orf123 / Fold change vs veh, C9orf123 / RFU, N4BP2L2 / Fold change vs veh, N4BP2L2 / RFU, ARFIP1 / Fold change vs veh, ARFIP1 / RFU, FAM179B / Fold change vs veh, FAM179B / RFU, BCL10 / Fold change vs veh, BCL10 / RFU, UHRF1BP1L / Fold change vs veh, UHRF1BP1L / RFU, BET1 / Fold change vs veh, BET1 / RFU, CNOT2 / Fold change vs veh, CNOT2 / RFU, ZNF268 / Fold change vs veh, ZNF268 / Fold change vs veh, ZNF507 / RFU, DGCR2 / Fold change vs veh, DGCR2 / RFU, WDSUB1 / Fold change vs veh, WDSUB1 / Fold change vs veh, HSP90B1 /// MIR3652 / RFU, ADSS / Fold change vs veh, ADSS / RFU, GK / Fold change vs veh, GK / RFU, ZNF148 / Fold change vs veh, ZNF148 / RFU, TAF9 / Fold change vs veh, TAF9 / RFU, SLC1A5 / Fold change vs veh, SLC1A5 / RFU, SLMO2 / Fold change vs veh, SLMO2 / RFU, ABCC4 / Fold change vs veh, ABCC4 / RFU, LOC101060439 /// RAP1B / Fold change vs veh, LOC101060439 /// RAP1B / RFU, RFX7 / Fold change vs veh, RFX7 / RFU, GTPBP10 / Fold change vs veh, GTPBP10 / RFU, CNEP1R1 / Fold change vs veh, CNEP1R1 / RFU, BIVM-ERCC5 /// ERCC5 / Fold change vs veh, BIVM-ERCC5 /// ERCC5 / RFU, ILF3 / Fold change vs veh, ILF3 / RFU 11762660_at / Fold change /veh 11762660_at / RFU VCAN (11757783_s_at) / Fold change /veh VCAN (11757783_s_at) / RFU DDX43 (11728927_at) / Fold change /veh DDX43 (11728927_at) / RFU KRT8 (11758188_x_at) / Fold change /veh KRT8 (11758188_x_at) / RFU NKD1 (11759106_at) / Fold change /veh NKD1 (11759106_at) / RFU SRD5A1 (11742802_a_at) / Fold change /veh SRD5A1 (11742802_a_at) / RFU TPSAB1 /// TPSB2 (11721975_s_at) / Fold change /veh TPSAB1 /// TPSB2 (11721975_s_at) / RFU GSTM3 (11746129_a_at) / Fold change /veh GSTM3 (11746129_a_at) / RFU IL23R (11737362_x_at) / Fold change /veh IL23R (11737362_x_at) / RFU TMEM51 (11727254_a_at) / Fold change /veh TMEM51 (11727254_a_at) / RFU PIWIL2 (11732686_x_at) / Fold change /veh PIWIL2 (11732686_x_at) / RFU ORM1 (11744905_x_at) / Fold change /veh ORM1 (11744905_x_at) / RFU CCDC152 (11743942_at) / Fold change /veh CCDC152 (11743942_at) / RFU ECM1 (11717891_a_at) / Fold change /veh ECM1 (11717891_a_at) / RFU IL23R (11748794_a_at) / Fold change /veh IL23R (11748794_a_at) / RFU TNFAIP8L3 (11732012_x_at) / Fold change /veh TNFAIP8L3 (11732012_x_at) / RFU MBOAT4 (11741988_at) / Fold change /veh MBOAT4 (11741988_at) / RFU 11764193_at / Fold change /veh 11764193_at / RFU TMEM53 (11763286_at) / Fold change /veh TMEM53 (11763286_at) / RFU MAGEB2 (11727129_at) / Fold change /veh MAGEB2 (11727129_at) / RFU TMEM200A (11744735_a_at) / Fold change /veh TMEM200A (11744735_a_at) / RFU CCDC152 (11751479_a_at) / Fold change /veh CCDC152 (11751479_a_at) / RFU FAM211A (11726209_a_at) / Fold change /veh FAM211A (11726209_a_at) / RFU RGS16 (11746705_a_at) / Fold change /veh RGS16 (11746705_a_at) / RFU VCAN (11755009_s_at) / Fold change /veh VCAN (11755009_s_at) / RFU RHOB (11743442_s_at) / Fold change /veh RHOB (11743442_s_at) / RFU RGS16 (11720943_a_at) / Fold change /veh RGS16 (11720943_a_at) / RFU RGS16 (11720944_at) / Fold change /veh RGS16 (11720944_at) / RFU, VPS4B / Fold change vs veh, VPS4B / RFU, CREB1 / Fold change vs veh, CREB1 / RFU, DNAJC13 / Fold change vs veh, DNAJC13 / RFU, GNAQ / Fold change vs veh, GNAQ / RFU, CDK5R1 / Fold change vs veh, CDK5R1 / RFU, ZRANB3 / Fold change vs veh, ZRANB3 / RFU, CUL4A / Fold change vs veh, CUL4A / RFU, CCNY / Fold change vs veh, CCNY / RFU, UFL1 / Fold change vs veh, UFL1 / RFU, COG3 / Fold change vs veh, COG3 / RFU, DIAPH2 / Fold change vs veh, DIAPH2 / RFU, SKA2 / Fold change vs veh, SKA2 / RFU, AFF3 / Fold change vs veh, AFF3 / RFU, LMF1 / Fold change vs veh, LMF1 / RFU, IPO11 / Fold change vs veh, IPO11 / RFU, DFFB / Fold change vs veh, DFFB / RFU, FOXP1 / Fold change vs veh, FOXP1 / RFU, CARD8 / Fold change vs veh, CARD8 / RFU, STRN3 / Fold change vs veh, STRN3 / RFU, ADK / Fold change vs veh, ADK / RFU, RASSF2 / Fold change vs veh, RASSF2 / RFU, WIPF1 / Fold change vs veh, WIPF1 / RFU, LARP1B / Fold change vs veh, LARP1B / RFU, RASA1 / Fold change vs veh, RASA1 / RFU, RB1 / Fold change vs veh, RB1 / RFU, PPFIA1 / Fold change vs veh, PPFIA1 / RFU, MAT2A / Fold change vs veh, MAT2A / RFU, CCT5 / Fold change vs veh, CCT5 / RFU, WDR92 / Fold change vs veh, WDR92 / RFU, CUX1 / Fold change vs veh, CUX1 / RFU, TTC7A / Fold change vs veh, TTC7A / RFU, TMEM135 / Fold change vs veh, TMEM135 / RFU, DEPTOR / Fold change vs veh, DEPTOR / RFU, CPM / Fold change vs veh, CPM / RFU, DNAJB6 / Fold change vs veh, DNAJB6 / RFU, CACNA2D3 / Fold change vs veh, CACNA2D3 / RFU, DTX4 / Fold change vs veh, DTX4 / RFU, TFCP2 / Fold change vs veh, TFCP2 / RFU, GMCL1 /// GMCL1P1 / Fold change vs veh, GMCL1 /// GMCL1P1 / RFU, AEBP2 / Fold change vs veh, AEBP2 / RFU, SNHG1 /// SNORD22 /// SNORD25 /// SNORD26 /// SNORD27 /// SNORD28 /// SNORD29 /// SNORD31 / Fold change vs veh, SNHG1 /// SNORD22 /// SNORD25 /// SNORD26 /// SNORD27 /// SNORD28 /// SNORD29 /// SNORD31 / Fold change (Aza/veh), C12orf56 (ProbeSet 11735607_a_at) / Fold change (ACY-1035/veh), C12orf56 (ProbeSet 11735607_a_at) / Fold change (Aza/veh), FGFR1OP (ProbeSet 11751329_s_at) / Fold change (ACY-1035/veh), FGFR1OP (ProbeSet 11751329_s_at) / Fold change (Aza/veh), VPS36 (ProbeSet 11739960_a_at) / Fold change (ACY-1035/veh), VPS36 (ProbeSet 11739960_a_at) / RFU SYPL1 (11715823_x_at) / Fold change /veh SYPL1 (11715823_x_at) / RFU IGFBP7 (11715501_s_at) / Fold change /veh IGFBP7 (11715501_s_at) / RFU REEP3 (11722064_at) / Fold change /veh REEP3 (11722064_at) / RFU IGLL1 (11728026_x_at) / Fold change /veh IGLL1 (11728026_x_at): dose or concentration left out as unconfirmed
Conditions: MV-4-11 cells, 48 hours

## Nc1ccc(-c2cccs2)cc1NC(=O)c1ccc2c(c1)cc(C1CC1)n2CCN1CCOCC1 [ACY-1035]
  RFU SPINT1 (11716480_a_at): 24.20 RFU
